# Reference: EP0024616A1, “1-(3'-Acyloxyphenyl)-2-aminoethanols, their acid addition salts, pharmaceutical compositions containing them and process for their preparation” (Klinge Pharma GmbH, priority 1979, dated 1981)
# Where a name gives a salt, the structure may show the parent alone. Read-outs that look alike come from different tables or passages of the source.
# Assays:
# [1] = Minimum solubility in water; conditions: for Mindestlöslichkeit in Wasser: Tab. 1, minimum solubility (lower bound) of the salts in water; for solubility: water
# [2] = test system: Blutdruck der Katze; assay: Blood pressure increasing effect after intraduodenal application in anaesthetised cats; type: in vivo, Katzen; conditions: Felis catus, aqueous solution, anaesthetised cat; for change in vivo at 1 mg/kg: 1 mg/kg intraduodenal; for change in vivo at 3 mg/kg: 3 mg/kg intraduodenal; for change in vivo at 10 mg/kg: 10 mg/kg intraduodenal; for change in vivo at 0.3 mg/kg: 0.3 mg/kg intraduodenal; for change in vivo at 30 mg/kg: 30 mg/kg intraduodenal
# Experimental: An 2-4 kg schweren, männlichen und weiblichen, narkotisierten Katzen [Chloralose (70 mg/kg) und Urethan 25 proz. (200 mg/kg)i.p.] wurden die Substanzen in wäßriger Lösung intraduodenal appliziert. Der Anstieg des systolischen und des diastolischen Blutdruckes wird in Prozenten des Ausgangswertes angegeben. N bedeutet Anzahl der Versuchstiere pro Versuch.
# [3] = test system: Blutdruck; conditions: oral; from the literature (E. Muschöll 1967); cited from earlier work
# [4] = read-out: Diastol. Blutdruck (Anstieg)
# [5] = read-out: Systol. Blutdruck (Anstieg)
Structure (SMILES),Mindestlöslichkeit in Wasser [1],"change in vivo at 1 mg/kg [2, 4]","change in vivo at 1 mg/kg [2, 5]","change in vivo at 3 mg/kg [2, 4]","change in vivo at 3 mg/kg [2, 5]","change in vivo at 10 mg/kg [2, 4]","change in vivo at 10 mg/kg [2, 5]",also measured
CC(C)C(=O)Oc1cccc(C(O)CN)c1 (centres unmarked) [Verbindung 4],50%,–,–,–,–,–,–,–
"CC(=O)Oc1cccc(C(O)CN)c1.Cl (centres unmarked) [Verbindung 1, 1-(3'-Acetoxyphenyl)-2-aminoethanol-hydrochlorid]",50%,20 ± 10%,27 ± 10%,29 ± 6%,35 ± 8%,48 ± 8%,59 ± 6%,–
"CCCCCCC(=O)Oc1cccc(C(O)CN)c1.Cl (centres unmarked) [Verbindung 12, 1-(3'-Heptanoyloxyphenyl)-2-aminoethanol-hydrochlorid]",50%,17 ± 7%,21 ± 8%,65 ± 17%,70 ± 14%,51 ± 11%,61 ± 10%,–
"CC(C)(C)C(=O)Oc1cccc(C(O)CN)c1.Cl (centres unmarked) [Verbindung 7, 1-(3'-Pivaloyloxyphenyl)-2-aminoethanol-hydrochlorid]",50%,17 ± 6%,17 ± 7%,29 ± 5%,37 ± 6%,74 ± 13%,79 ± 8%,–
NCC(O)c1cccc(OC(=O)c2ccccc2)c1 (centres unmarked) [Verbindung 18],50%,–,–,–,–,–,–,–
CCC(CC)C(=O)Oc1cccc(C(O)CN)c1 (centres unmarked) [Verbindung 10],50%,19 ± 3%,25 ± 5%,48 ± 11%,48 ± 11%,89 ± 14%,85 ± 11%,–
NCC(O)c1cccc(OC(=O)Cc2ccccc2)c1 (centres unmarked) [Verbindung 15],50%,20 ± 4%,24 ± 3%,36 ± 11%,50 ± 11%,81 ± 15%,88 ± 15%,–
CCC(C(=O)Oc1cccc(C(O)CN)c1)c1ccccc1 (centres unmarked) [Verbindung 17],–,25 ± 7%,29 ± 7%,31 ± 6%,42 ± 9%,38 ± 6%,47 ± 10%,solubility [1]: 200 mg/mL
CCCC(=O)Oc1cccc(C(O)CN)c1 (centres unmarked) [Verbindung 3],50%,–,–,–,–,–,–,–
"Cc1ccc(C(=O)Oc2cccc(C(O)CN)c2)cc1 (centres unmarked) [Verbindung 20, 1-[3'-(4'-Methylbenzoyloxy)phenyl]-2-aminoethanol-hydrochlorid]",50%,26 ± 6%,28 ± 6%,100 ± 24%,122 ± 25%,–,–,"change in vivo at 0.3 mg/kg [2, 4]: 17 ± 10%; change in vivo at 0.3 mg/kg [2, 5]: 20 ± 10%"
CCCC(CC)(CC)C(=O)Oc1cccc(C(O)CN)c1 (centres unmarked) [Verbindung 13],50%,–,–,–,–,–,–,–
"CC(C)(C)C(=O)NCC(OC(=O)C(C)(C)C)c1cccc(OC(=O)C(C)(C)C)c1 (centres unmarked) [Verbindung 25, reference compound]",–,–,–,–,–,–,–,solubility [1]: 0.1 mg/mL
CCC(=O)Oc1cccc(C(O)CN)c1 (centres unmarked) [Verbindung 2],50%,–,–,–,–,–,–,–
"CC(=O)NCC(OC(C)=O)c1cccc(O)c1 (centres unmarked) [Verbindung 22, reference compound]",–,–,–,–,–,–,–,solubility [1]: 12 mg/mL
CC(C)CCC(=O)Oc1cccc(C(O)CN)c1 (centres unmarked) [Verbindung 9],50%,–,–,–,–,–,–,–
"CC(C)(C)C(=O)NCC(OC(=O)C(C)(C)C)c1cccc(O)c1 (centres unmarked) [Verbindung 24, reference compound]",–,–,–,–,–,–,–,solubility [1]: 0.1 mg/mL
CCCCCCCCCCCC(=O)Oc1cccc(C(O)CN)c1 (centres unmarked) [Verbindung 14],–,16 ± 4%,23 ± 6%,25 ± 8%,39 ± 9%,90 ± 25%,87 ± 15%,solubility [1]: 150 mg/mL
Cc1ccccc1C(=O)Oc1cccc(C(O)CN)c1 (centres unmarked) [Verbindung 19],50%,15 ± 7%,17 ± 5%,21 ± 6%,26 ± 7%,32 ± 11%,37 ± 7%,–
"NCC(O)c1cccc(O)c1 (racemic) [Norfenefrin, DL-1-(3'-Hydroxyphenyl)-2-aminoethanol, reference compound]",–,–,–,18 ± 6%,25 ± 9%,25 ± 5%,34 ± 7%,"change in vivo at 30 mg/kg [2, 4]: 37 ± 9%; change in vivo at 30 mg/kg [2, 5]: 41 ± 7%; orale Wirksamkeit [3]: geringe orale Wirksamkeit"
"CC(=O)NCC(O)c1cccc(O)c1 (centres unmarked) [Verbindung 21, reference compound]",–,–,–,–,–,–,–,solubility [1]: 100 mg/mL
CCCCCC(=O)Oc1cccc(C(O)CN)c1 (centres unmarked) [Verbindung 8],50%,–,–,–,–,–,–,–
CC(C)(C)CC(=O)Oc1cccc(C(O)CN)c1 (centres unmarked) [Verbindung 11],50%,–,–,–,–,–,–,–
CC(C)CC(=O)Oc1cccc(C(O)CN)c1 (centres unmarked) [Verbindung 6],50%,–,–,–,–,–,–,–
CCCCC(=O)Oc1cccc(C(O)CN)c1 (centres unmarked) [Verbindung 5],50%,31 ± 8%,33 ± 7%,29 ± 8%,42 ± 10%,–,–,"change in vivo at 0.3 mg/kg [2, 4]: 19 ± 11%; change in vivo at 0.3 mg/kg [2, 5]: 20 ± 10%"
CC(C(=O)Oc1cccc(C(O)CN)c1)c1ccccc1 (centres unmarked) [Verbindung 16],50%,10 ± 3%,20 ± 7%,31 ± 8%,38 ± 12%,55 ± 13%,63 ± 9%,–
"CC(C)(C)C(=O)NCC(O)c1cccc(O)c1 (centres unmarked) [Verbindung 23, reference compound]",–,–,–,–,–,–,–,solubility [1]: 10 mg/mL
